Results on two compounds are retold here after patent US20230067644A1, “DRG-MDM2-3 FOR USE AS A NOVEL MOUSE DOUBLE MINUTE 2 (MDM2) INHIBITOR” (BAHCESEHIR UNIVERSITESI, priority 2020, published 2023).

For orientation: IC50 means the concentration at which inhibition is half-maximal.

Read-outs that look alike come from different tables or passages of the source.

The subject of experiment [1] is HCT-116 cells. As to the kind of experiment: MTT cell proliferation assay. The format is cell-based. Conditions: Homo sapiens, HCT-116, 100 μM, read-out: cell viability decreased. The protocol:
(§1) HCT 116 colon cancer and MDA-MB231 breast cancer cell lines are used in cell culture experiments.
For proliferation inhibition analysis, cells were seeded in 24 well plates at 1×10^4 cells/well cells overnight without drug treatment. During the cell proliferation experiments, we performed five days of treatment in each cell line and repeated the experiments three times to check each experiment. No significant difference in cell viability was observed after the third day. Therefore, cells with different drug concentrations were treated for two days. After 48 hours, MTT was applied to the cells and incubated at 37° C. for 4 hours, formazan was solubilized with DMSO (Sigma-Aldrich, St. Louis, USA) and absorbance was measured at 570 nm.
Molecule concentration was 100 μM, the lower concentrations were not shown. Vehicle represents the groups treated with only %0,5 DMSO and Untreated represents no molecule treated group. Molecule responses were evaluated by cell viability which is obtained by spectrophotometric analysis of cells upon MTT treatment at 12 h, 24 h, 48 h and 72 h. […] Statistical significance in graphs was determined by comparing each treatment group with DMSO control using ANOVA testing and significance is considered as p<0.001 (FIG. 2).
As a result, cell viability decreased by 40% at the end of the first day and reached 60% at the end of the third day. […]

The next experiment concerns MDA-MB231 cell lines. In words: MTT cell viability assay (IC50). Format: cell-based. The conditions noted are these: Homo sapiens, MDA-MB-231, single dose of treatment, 10^-9 to 10^-4 M, absorbance 570 nm. How it is done: as §1
Cells were treated with high-glucose DMEM medium (Biosera) supplemented with 10% FBS (Gibco) and 1× penicillin/streptomycin (Multicell). The assay was designed to contain 10,000 cells for each well of 24-well cell culture plates before being treated with inhibitors.
Compound of formula I was dissolved with DMSO as 20 mM stock. 24 hours later, the solution was diluted in DMEM with 10% FBS and final concentration of vehicle DMSO was 0.5% at maximum. Therefore, the vehicle group included 0.5% DMSO concentration in experiments. Intensive cultivation of cells causes a decrease in proliferation capacity.
The MTT cell viability assay was used to detect values of half-maximal inhibitory concentration (IC50). Different concentrations of compound of formula I ranging between 10^−9 to 10^−4 M were tested on MDA-MB231 cell lines with single dose of treatment. 570 nm absorbance values were recorded and IC50 values were calculated by dose response—inhibition curves and nonlinear regression analysis on Graphpad Prism 8 software.

Experiment [2] deals with HCT-116 cells. In words: Microscopic evaluation of cells (proliferation, apoptotic morphology). The format is cell-based. The protocol: Cells were photographed and observed under microscope for three days.
As a result, cell viability decreased by 40% at the end of the first day and reached 60% at the end of the third day. Any cell proliferation change and apoptotic cell morphology were not observed in the untreated and vehicle groups. Moreover, differences in cell morphology were also observed. […] Upon treatment with the compound of formula I according to present invention with 100 μM concentration, cells having the morphology of apoptotic cells were observed starting from the 3rd hour.

The target of the next experiment is MDM2 protein (Homo sapiens, UniProt Q00987). Conditions: background statement; cited from earlier work.
MDM2 protein, sequence (Q00987 whole entry, species assumed): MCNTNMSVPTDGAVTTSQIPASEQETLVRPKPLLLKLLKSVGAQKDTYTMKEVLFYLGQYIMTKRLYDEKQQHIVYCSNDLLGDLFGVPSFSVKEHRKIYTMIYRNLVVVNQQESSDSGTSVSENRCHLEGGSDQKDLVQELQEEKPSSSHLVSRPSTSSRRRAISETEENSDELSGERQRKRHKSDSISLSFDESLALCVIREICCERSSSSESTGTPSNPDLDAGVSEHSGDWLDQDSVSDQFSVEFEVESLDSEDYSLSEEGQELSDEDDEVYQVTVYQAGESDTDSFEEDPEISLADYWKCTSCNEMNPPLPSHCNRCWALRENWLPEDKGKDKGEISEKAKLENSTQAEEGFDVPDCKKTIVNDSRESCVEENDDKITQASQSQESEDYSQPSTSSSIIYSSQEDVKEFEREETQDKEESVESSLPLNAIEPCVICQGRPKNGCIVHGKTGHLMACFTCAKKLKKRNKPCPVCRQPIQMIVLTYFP

With `O=C(CCc1ccccc1Cl)NC(CC1CNc2ccccc21)C(=O)O` (stereo not shown) [compound of formula I], the cytotoxicity at 100 µM in the experiment on HCT-116 cells [1] (at the end of the first day) is 40%; with HCT-116 cells [1] (at the end of the third day), 60%. The compound further displayed an IC50 with MDA-MB231 cell lines of 41 µM. The “hour from which cells having the morphology of apoptotic cells were observed” value with HCT-116 cells [2] (100 μM concentration) amounted to 3 hour. For the same compound, in the experiment on HCT-116 cells [2] (FIG. 3), the “apoptotic activity (onset, microscopy)” value is reported as “clear apoptotic activity from the twelfth hour”. In addition, the “proliferation and cell structures under microscope” value in the experiment on HCT-116 cells [2] (observed for three days, vs vehicle and untreated, FIG. 3) was “reduced proliferation and showed apoptotic cell structures”.

With MI-319, the “binding affinity to MDM2 protein relative to a natural p53 peptide” value at MDM2 protein was 500 fold.
